This note sets out measurements from US8207172B2 (Bayer Intellectual Property GmbH, priority 2004, dated 2012).

Each structure is given as a SMILES string. Where a name gives a salt, the structure may show the parent alone.

Assay [1] has as its system A431 cells (human epidermoid carcinoma). Kind of assay: In vitro tumor cell proliferation assay (Cell Titer-Glo luminescent cell viability), A431. The following applies: A-431, 72 h, 72 hours of drug exposure, ATP luminescence readout, read-out: IC50, anti-proliferative activity (inhibition of cell proliferation). Type of assay: cell-based. The gist of the method:
(§1)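 Proliferation inhibition was measured as ATP-dependent luciferase signal after cells in RPMI with 10% FBS received test compound for 72 h at 37° C. Final concentrations spanned […] to 64 pM in 0.1% DMSO; IC50 values were derived.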
On the technique in general: Cellular ATP, detected with luciferase, serves as a proxy for viable cell number.

The subject of assay [2] is BT474 (human breast carcinoma). Briefly: In vitro tumor cell proliferation assay (Cell Titer-Glo luminescent cell viability), BT474. The following applies: BT-474, 72 h, BT474 cells, 72 hours of drug exposure, ATP luminescence readout, read-out: IC50, anti-proliferative activity (inhibition of cell proliferation). Format: cell-based. The gist of the method: as §1

As to `Fc1cccc(COc2ccc(Nc3ncnc4sc5c(c34)CCc3nn(CCCl)cc3-5)cc2Cl)c1` [Example 79, 2-(2-chloroethyl)-N-{3-chloro-4-[(3-fluorobenzyl)oxy]phenyl}-4,5-dihydro-2H-pyrimido[5′,4′:4,5]thieno[2,3-e]indazol-6-amine], the IC50 was at most 50 µM in assay [1] and at most 1 µM in assay [2].

On to `OCCn1ncc2c1CCc1c-2sc2ncnc(Nc3ccc(OCc4cccc(F)c4)c(Cl)c3)c12` [Example 80, 2-[6-({3-chloro-4-[(3-fluorobenzyl)oxy]phenyl}amino)-4,5-dihydro-3H-pyrimido[5′,4′:4,5]thieno[2,3-e]indazol-3-yl]ethanol], for which the IC50 in assay [1] is at most 5 µM; in assay [2], at most 1 µM.

`CN1CCN(CCn2ncc3c2CCc2c-3sc3ncnc(Nc4ccc(OCc5cccc(F)c5)c(Cl)c4)c23)CC1` [Example 82, N-{3-chloro-4-[(3-fluorobenzyl)oxy]phenyl}-3-[2-(4-methylpiperazin-1-yl)ethyl]-4,5-dihydro-3H-pyrimido[5′,4′:4,5]thieno[2,3-e]indazol-6-amine]: the IC50 in assay [1] was at most 5 µM; in assay [2] it was at most 1 µM.

For `Fc1cccc(COc2ccc(Nc3ncnc4sc5c(c34)CCc3c-5cnn3CCn3ccnc3)cc2Cl)c1` [Example 83, N-{3-chloro-4-[(3-fluorobenzyl)oxy]phenyl}-3-[2-(1H-imidazol-1-yl)ethyl]-4,5-dihydro-3H-pyrimido[5′,4′:4,5]thieno[2,3-e]indazol-6-amine], the IC50 was at most 5 µM in assay [1] and at most 1 µM in assay [2].

With `COCCNCCn1ncc2c1CCc1c-2sc2ncnc(Nc3ccc(OCc4cccc(F)c4)c(Cl)c3)c12` [Example 84, N-{3-chloro-4-[(3-fluorobenzyl)oxy]phenyl}-3-{2-[(2-methoxyethyl)amino]ethyl}-4,5-dihydro-3H-pyrimido[5′,4′:4,5]thieno[2,3-e]indazol-6-amine], the IC50 in assay [1] is at most 5 µM; in assay [2], at most 1 µM.

Regarding `CS(=O)(=O)CCNCCn1ncc2c1CCc1c-2sc2ncnc(Nc3ccc(OCc4cccc(F)c4)c(Cl)c3)c12` [Example 85, N-{3-chloro-4-[(3-fluorobenzyl)oxy]phenyl}-3-(2-{[2-(methylsulfonyl)ethyl]amino}ethyl)-4,5-dihydro-3H-pyrimido[5′,4′:4,5]thieno[2,3-e]indazol-6-amine], the IC50 is at most 5 µM in assay [1] and at most 1 µM in assay [2].

In the case of `Fc1cccc(COc2ccc(Nc3ncnc4sc5c(c34)CCc3c-5cnn3CCN3CCOCC3)cc2Cl)c1` [Example 86, N-{3-chloro-4-[(3-fluorobenzyl)oxy]phenyl}-3-(2-morpholin-4-ylethyl)-4,5-dihydro-3H-pyrimido[5′,4′:4,5]thieno[2,3-e]indazol-6-amine], the IC50 in assay [1] was at most 50 µM; in assay [2], at most 1 µM.

In the case of `Fc1cccc(COc2ccc(Nc3ncnc4sc5c(c34)CCc3c-5cnn3CCN3CCCC3)cc2Cl)c1` [Example 87, N-{3-chloro-4-[(3-fluorobenzyl)oxy]phenyl}-3-(2-pyrrolidin-1-ylethyl)-4,5-dihydro-3H-pyrimido[5′,4′:4,5]thieno[2,3-e]indazol-6-amine], the IC50 in assay [1] was at most 5 µM; in assay [2] it was at most 1 µM.

For the compound `OCCn1ncc2c1CCc1c-2sc2ncnc(Nc3ccc(F)c(Cl)c3)c12` [Example 88, 2-{6-[(3-chloro-4-fluorophenyl)amino]-4,5-dihydro-3H-pyrimido[5′,4′:4,5]thieno[2,3-e]indazol-3-yl}ethanol], the IC50 in assay [1] and in assay [2] was at most 5 µM throughout.

In the case of `CS(=O)(=O)OCCn1ncc2c1CCc1c-2sc2ncnc(Nc3ccc(F)c(Cl)c3)c12` [Example 89, 2-{6-[(3-chloro-4-fluorophenyl)amino]-4,5-dihydro-3H-pyrimido[5′,4′:4,5]thieno[2,3-e]indazol-3-yl}ethyl methanesulfonate], the IC50 in assay [1] and in assay [2] was at most 50 µM in each case.

As to `CN1CCN(CCn2ncc3c2CCc2c-3sc3ncnc(Nc4ccc(F)c(Cl)c4)c23)CC1` [Example 90, N-(3-chloro-4-fluorophenyl)-3-[2-(4-methylpiperazin-1-yl)ethyl]-4,5-dihydro-3H-pyrimido[5′,4′:4,5]thieno[2,3-e]indazol-6-amine trifluoroacetate], the IC50 in assay [1] and in assay [2] was at most 5 µM throughout.

Consider `OCCN(CCO)CCn1ncc2c1CCc1c-2sc2ncnc(Nc3ccc(F)c(Cl)c3)c12` [Example 91, 2,2′-[(2-{6-[(3-chloro-4-fluorophenyl)amino]-4,5-dihydro-3H-pyrimido[5′,4′:4,5]thieno[2,3-e]indazol-3-yl}ethyl)imino]diethanol trifluoroacetate (salt)], for which the IC50 in assay [1] and in assay [2] was at most 5 µM throughout.

In the case of `CS(=O)(=O)CCNCCn1ncc2c1CCc1c-2sc2ncnc(Nc3ccc(F)c(Cl)c3)c12` [Example 92, N-(3-chloro-4-fluorophenyl)-3-(2-{[2-(methylsulfonyl)ethyl]amino}ethyl)-4,5-dihydro-3H-pyrimido[5′,4′:4,5]thieno[2,3-e]indazol-6-amine], the IC50 in assay [1] and in assay [2] was at most 5 µM each time.

In the case of `Fc1ccc(Nc2ncnc3sc4c(c23)CCc2c-4cnn2CCNCCN2CCOCC2)cc1Cl` [Example 93, N-(3-chloro-4-fluorophenyl)-3-{2-[(2-morpholin-4-ylethyl)amino]ethyl}-4,5-dihydro-3H-pyrimido[5′,4′:4,5]thieno[2,3-e]indazol-6-amine], the IC50 in assay [1] and in assay [2] was at most 5 µM in each case.

`Fc1ccc(Nc2ncnc3sc4c(c23)CCc2c-4cnn2CCN2CCNCC2)cc1Cl` [Example 94, N-(3-chloro-4-fluorophenyl)-3-(2-piperazin-1-ylethyl)-4,5-dihydro-3H-pyrimido[5′,4′:4,5]thieno[2,3-e]indazol-6-amine]: the IC50 in assay [1] and in assay [2] was at most 5 µM throughout.

Consider `CN(C)[C@H]1CCN(CCn2ncc3c2CCc2c-3sc3ncnc(Nc4ccc(F)c(Cl)c4)c23)C1` [Example 95, N-(3-chloro-4-fluorophenyl)-3-{2-[3-(dimethylamino)pyrrolidin-1-yl]ethyl}-4,5-dihydro-3H-pyrimido[5′,4′:4,5]thieno[2,3-e]indazol-6-amine], for which the results for the IC50 in assay [1] and in assay [2] were at most 5 µM and at most 1 µM, respectively.

With `OCCNCCn1ncc2c1CCc1c-2sc2ncnc(Nc3ccc(F)c(Cl)c3)c12` [Example 96, 2-[(2-{6-[(3-chloro-4-fluorophenyl)amino]-4,5-dihydro-3H-pyrimido[5′,4′:4,5]thieno[2,3-e]indazol-3-yl}ethyl)amino]ethanol], the figures for the IC50 in assay [1] and in assay [2] were at most 5 µM and at most 1 µM, respectively.

Take `Fc1ccc(Nc2ncnc3sc4c(c23)CCc2c-4cnn2CCn2ccnc2)cc1Cl` [Example 97, N-(3-chloro-4-fluorophenyl)-3-[2-(1H-imidazol-1-yl)ethyl]-4,5-dihydro-3H-pyrimido[5′,4′:4,5]thieno[2,3-e]indazol-6-amine]: the IC50 in assay [1] and in assay [2] was at most 5 µM throughout.

For `CC(C)(C)[Si](C)(C)OCCn1cc2c(n1)CCc1c-2sc2ncnc(Nc3ccc(OCc4ccccn4)c(Cl)c3)c12` [Example 98, 2-(2-{[tert-butyl(dimethyl)silyl]oxy}ethyl)-N-[3-chloro-4-(pyridin-2-ylmethoxy)phenyl]-4,5-dihydro-2H-pyrimido[5′,4′:4,5]thieno[2,3-e]indazol-6-amine], the values for the IC50 in assay [1] and in assay [2] were at most 50 µM and at most 1 µM, respectively.

As to `OCCn1cc2c(n1)CCc1c-2sc2ncnc(Nc3ccc(OCc4ccccn4)c(Cl)c3)c12` [Example 99, 2-(6-{[3-chloro-4-(pyridin-2-ylmethoxy)phenyl]amino}-4,5-dihydro-2H-pyrimido[5′,4′:4,5]thieno[2,3-e]indazol-2-yl)ethanol], the IC50 was at most 5 µM in assay [1] and at most 1 µM in assay [2].

Consider `OCCn1ncc2c1CCc1c-2sc2ncnc(Nc3ccc(OCc4ccccn4)c(Cl)c3)c12` [Example 100, 2-(6-{[3-chloro-4-(pyridin-2-ylmethoxy)phenyl]amino}-4,5-dihydro-2H-pyrimido[5′,4′:4,5]thieno[2,3-e]indazol-3-yl)ethanol], for which the IC50 in assay [1] was at most 5 µM; in assay [2] it was at most 1 µM.

In the case of `Clc1cc(Nc2ncnc3sc4c(c23)CCc2nn(CCBr)cc2-4)ccc1OCc1ccccn1` [Example 101, 2-(2-bromoethyl)-N-[3-chloro-4-(pyridin-2-ylmethoxy)phenyl]-4,5-dihydro-2H-pyrimido[5′,4′:4,5]thieno[2,3-e]indazol-6-amine], the IC50 was at most 50 µM in assay [1] and at most 1 µM in assay [2].

`CN1CCN(CCn2cc3c(n2)CCc2c-3sc3ncnc(Nc4ccc(OCc5ccccn5)c(Cl)c4)c23)CC1` [Example 102, N-[3-chloro-4-(pyridin-2-ylmethoxy)phenyl]-2-[2-(4-methylpiperazin-1-yl)ethyl]-4,5-dihydro-2H-pyrimido[5′,4′:4,5]thieno[2,3-e]indazol-6-amine]: the IC50 in assay [1] is at most 5 µM; in assay [2], at most 1 µM.

Turning to `COCCNCCn1cc2c(n1)CCc1c-2sc2ncnc(Nc3ccc(OCc4ccccn4)c(Cl)c3)c12` [Example 103, N-[3-chloro-4-(pyridin-2-ylmethoxy)phenyl]-2-{2-[(2-methoxyethyl)amino]ethyl}-4,5-dihydro-2H-pyrimido[5′,4′:4,5]thieno[2,3-e]indazol-6-amine], the IC50 in assay [1] was at most 50 µM; in assay [2], at most 1 µM.

On to `Clc1cc(Nc2ncnc3sc4c(c23)CCc2nn(CCn3ccnc3)cc2-4)ccc1OCc1ccccn1` [Example 104, N-[3-chloro-4-(pyridin-2-ylmethoxy)phenyl]-2-[2-(1H-imidazol-1-yl)ethyl]-4,5-dihydro-2H-pyrimido[5′,4′:4,5]thieno[2,3-e]indazol-6-amine], for which the IC50 in assay [1] was at most 50 µM; in assay [2] it was at most 1 µM.
